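These data come from cells grown in 96-well plates and exposed to compound for 48 hours at five concentrations. At the GI50, growth is halved. TGI denotes the concentration required for complete inhibition of growth.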
Key:
Experiment in all cases: DTP human tumour cell line panel, 48 h
T-47D breast = system: T-47D breast
HCC-2998 colon = system: HCC-2998 colon
HOP-62 NSCLC = system: HOP-62 NSCLC
MDA-N = system: MDA-N
IGROV1 ovarian = system: IGROV1 ovarian
MCF7 breast = system: MCF7 breast
CCRF-CEM leukemia = system: CCRF-CEM leukemia
NCI-H460 lung = system: NCI-H460 lung
NCI-H23 lung = system: NCI-H23 lung
DU-145 prostate = system: DU-145 prostate
SNB-19 CNS = system: SNB-19 CNS
SF-539 CNS = system: SF-539 CNS
TK-10 renal = system: TK-10 renal
NCI/ADR-RES ovarian = system: NCI/ADR-RES ovarian
HCT-116 colon = system: HCT-116 colon

SMILES	TGI (T-47D breast) [µM]	TGI (HCC-2998 colon) [µM]	TGI (HOP-62 NSCLC) [µM]	TGI (MDA-N) [µM]	TGI (IGROV1 ovarian) [µM]	TGI (MCF7 breast) [µM]	TGI (CCRF-CEM leukemia) [µM]	TGI (NCI-H460 lung) [µM]	TGI (NCI-H23 lung) [µM]	TGI (DU-145 prostate) [µM]	TGI (SNB-19 CNS) [µM]	TGI (SF-539 CNS) [µM]	TGI (TK-10 renal) [µM]	TGI (NCI/ADR-RES ovarian) [µM]	TGI (HCT-116 colon) [µM]	GI50 (T-47D breast) [µM]	GI50 (TK-10 renal) [µM]
COC(=O)c1cc(NC(=O)Cc2c[nH]c3ccccc23)cn1C	> 100	> 100	> 100	> 100	> 100	> 100	> 100	> 100	> 100	> 100	> 100	> 100	> 100	> 100	> 100		
O=C(/C=C/c1ccccc1)Nc1ccccc1SCCCCl	> 85.8	73.9	> 100	28.6	> 51.5	> 100	> 100	> 82.2	40.7	> 100	> 95.4	39.8	> 100	35.1	39.1		
COc1ccccc1C(O)[C@@H]1C[C@@H]2[C@H]3CC[C@@](C)([C@@H]2O1)C3(C)C (stereo not given in full)	41.3	41.8	35.1	32	31.2	41.7	44.1	36.3	50.5	49.6	39	24.2	50.7	42	43.1		
Cc1ccc(C)n2c1nc1ccccc12	> 100	> 100	> 100	> 100	> 100	> 100	> 100	> 100	> 100	> 100	> 100	> 100	> 100	> 100			
COC1CC(OC2C(C)OC(OC3C(C)OC(OC4C(C)OC(O[C@H]5CC[C@@]6(C)C(=CC[C@]7(O)[C@@H]6C[C@@H](OC(C)=O)[C@@]6(C)[C@]7(O)CC[C@@]6(O)C(C)=O)C5)CC4OC)CC3OC)CC2OC)OC(C)C1O (stereo not given in full)	> 25	> 25	> 25	> 25	> 25	> 25	> 25		> 25	> 25	> 25	> 25	> 25	> 25	> 25		
CSc1ccc(Nc2cc(=O)[nH]c(=O)[nH]2)cc1	> 100	> 100		> 100		> 100	> 100	> 100	> 100	> 100	> 100	> 100		> 100	> 100		
CC(C)CC(N)C(=O)Nc1ccc2ccccc2c1 (stereo not given)	> 100	> 100	> 100	> 100	> 100	> 100	> 100		> 100	> 100	> 100	> 100	> 100	> 100	> 100		
C=C(C(=O)OC)[C@@H]1C[C@@H](OC(C)=O)C2=C[C@H](C[C@@]3(C)O[C@@H]3C3=CC(C)=C(O3)[C@H]1OC(C)=O)OC2=O	33.8	43	67.2	50.8	57.1	35.3		64.5	35.5	> 100	> 100	79	31.7	> 100	24.3		
O=[S@]1c2ccc3ccccc3c2N[C@@H]2[C@H]1[C@H]1C=C[C@@H]2C1	> 100		> 100	60.8	> 100	> 100	68.4	> 100	> 100	> 100	> 100	> 100	> 100	99.7	> 100		
O=C1CCc2ccc(O)c(c2)Oc2ccc(cc2)C(Sc2ccccc2)CCO1 (stereo not given)	54.1	32.9	30.9	34.8	27.6	43.8	> 100		27.3	46.6	39.8	31.4	31.6	31.4	29.8		
COc1cc2c(c(OC)c1OC)-c1ccc(SC)c(=O)cc1[C@@H](O)CC2	> 100	> 100	> 100	0.000318		> 100	> 100	> 100		> 100			> 100	0.302	> 100	> 100	> 100
CC(Nc1ccc(Cl)c(Cl)c1)c1ccncc1 (stereo not given)	> 100		49.7	66.6	50.7	> 100	> 100	44	> 100	89.7	> 100	56.4	> 100	> 100	36.5		
C=C1C(=O)O[C@H]2C1C[C@@H](OC(C)=O)/C(C)=C/CC[C@@]1(C)O[C@H]21 (stereo not given in full)	21.5	27.9	34.5	18.7	21.2	23.4	4.75	> 100	37.2	27.8	78		17.4	32.3	20.9		
COc1c(C(=O)NCCN(CCNC(=O)c2cccc(-c3cccc(C(=O)N(C)C)c3OC)c2OC)CCNC(=O)c2cccc(-c3cccc(C(=O)N(C)C)c3OC)c2OC)cccc1-c1cccc(C(=O)N(C)C)c1OC	> 100	33.1	> 100	37.9	> 100	78	72.7	> 100	> 100	> 100	> 100	36.2		> 100	41.4		
Nc1nc(NCCCO)cc(=O)[nH]1	> 100	> 100	> 100	> 100	> 100	> 100	> 100	> 100	> 100	> 100	> 100			> 100	> 100		
[B-][P+](CC[P+]1([B-])[C@@H](C)[C@@H](O)[C@H](O)[C@@H]1C)(c1ccccc1)c1ccccc1OC (stereo not given in full)	37.3		33.6	29.6	31.3	35.6	46.4	32	31.3	33.7	30.9	31.6	32.5	35.9	35.3		
CN(C)N1C(=O)S/C(=C\c2ccc([N+](=O)[O-])cc2)C1=O	> 100	> 100	> 100	> 100	> 100	> 100	> 100	> 100	> 100	> 100		> 100	> 100	> 100	> 100		
COc1cccc(/C=C2\S/C(=N/Nc3nc(C)c(C)s3)NC2=O)c1O	73.8	> 100	> 100	> 100	> 100	> 100		> 100	> 100	> 100	> 100	> 100	> 100	> 100	> 100		
Cc1cc(=O)oc2cc(OCC(O)COC(C)C)ccc12 (stereo not given)	> 100	> 100	> 100	> 100	> 100	> 100	> 100	> 100	> 100	> 100	> 100		> 100	> 100	> 100		
CC(C)(Cl)C(Br)CCC(Br)(CCl)C(Cl)CBr (stereo not given)	> 10	> 10	> 10	> 10	> 10	> 10	> 10	> 10	> 10	> 10	> 10	> 10	> 10	> 10			
CC(=O)NCC1OC2COC(c3ccccc3)OC2C(NC(=O)c2ccccc2)C1OC(=O)c1ccccc1 (stereo not given)	> 100	> 100	> 100	> 100		> 100	> 100	> 100	> 100	> 100	> 100	> 100	> 100	> 100	> 100		
C=CC1CN(C(=O)OCC)N(C(=O)OCC)C1CCc1ccccc1 (stereo not given)	> 100	> 100	> 100	> 100	> 100	> 100	> 100	> 100	> 100	> 100	> 100		> 100	> 100	> 100		
CC(=O)c1ccc2c(c1)CC1(C2)Cc2cc3c(c(C(=O)O)c2C1)CCC3 (stereo not given)	> 100	> 100	> 100	> 100	> 100	> 100	> 100	> 100	> 100	> 100		> 100	> 100	> 100	> 100		
CCOC(=O)c1c(NC(=S)Nc2ccc(Cl)cc2)sc2c1CCN(C)C2	> 100		> 100	> 100	> 100	> 100	> 100	> 100	> 100	> 100	> 100	> 100	> 100	> 100	> 100		
